Results taken from US10760110B2, “Antibiotic testing and screening system” (priority 2017, dated 2020).
Like-named read-outs stand apart in the source and are kept apart here.

System: K. pneumoniae NVT1001 strains with ESBL or AmpC β-lactamase plasmids
Test: Etest MIC of β-lactams, OmpK35/36 loss, ΔramR and/or extended-spectrum β-lactamase and AmpC β-lactamase (Table 8)
Assay type: cell-based, Klebsiella pneumoniae
Settings: Klebsiella pneumoniae
Experimental: DNA fragments of the resistance genes along with their flanking regions were amplified from clinical plasmids via PCR with specific primer pairs. The resulting PCR fragments were digested and then cloned into the plasmid pACYC177 or pACYC184. The resulting plasmids were then transformed into K. pneumoniae strain NVT1001 via electroporation. The recombinant bacteria were plated onto LB agar plates containing kanamycin (50 mg/L) or chloramphenicol (50 mg/L), and the presence of the cloned gene was confirmed via PCR and DNA sequencing.
The MICs of antibiotics were determined using the Etest (Biodisk AB, Sweden) according to the manufacturer's instructions. The MICs from the Etest, which fall between standard two-fold dilutions, were rounded up to the next highest two-fold value. The MICs of ceftazidime and cefotaxime against K. pneumoniae NVT1001 harbouring the pACYC177 plasmid with blaOXA-48 were further determined using a broth microdilution test according to the recommendations of the CLSI,^25 and the results were interpreted according to the breakpoints established by the CLSI in 2017.^25 Meanwhile, due to the lack of CLSI breakpoints in 2016 and 2017, the results for cephalothin were interpreted according to the breakpoints established by the CLSI in 2015,^26 and the results for moxifloxacin were interpreted according to the breakpoints established by the EUCAST in 2017.^27

[1] = CMY-2 on pACYC177, WT (NVT1001), read-out: MIC
[2] = CMY-2 on pACYC177, Δ35 (ΔompK35 mutant)
[3] = CMY-2 on pACYC177, Δ35/36 (ΔompK35/36 mutant)
[4] = CMY-2 on pACYC177, Δ36 (ΔompK36 mutant)
[5] = CMY-2 on pACYC177, ΔramR mutant
[6] = CMY-2 on pACYC177, ΔramRΔ35 (ΔramRΔompK35 mutant)
[7] = CMY-2 on pACYC177, ΔramRΔ35/36 (ΔramRΔompK35/36 mutant)
[8] = CMY-2 on pACYC177, ΔramRΔ36 (ΔramRΔompK36 mutant)
[9] = CTX-M-14 on pACYC177, WT (NVT1001), read-out: MIC
[10] = CTX-M-14 on pACYC177, Δ35 (ΔompK35 mutant)
[11] = CTX-M-14 on pACYC177, Δ35/36 (ΔompK35/36 mutant)
[12] = CTX-M-14 on pACYC177, Δ36 (ΔompK36 mutant)
[13] = CTX-M-14 on pACYC177, ΔramR mutant
[14] = CTX-M-14 on pACYC177, ΔramRΔ35 (ΔramRΔompK35 mutant)
[15] = CTX-M-14 on pACYC177, ΔramRΔ35/36 (ΔramRΔompK35/36 mutant)
[16] = CTX-M-14 on pACYC177, ΔramRΔ36 (ΔramRΔompK36 mutant)
[17] = CTX-M-15 on pACYC177, WT (NVT1001), read-out: MIC
[18] = CTX-M-15 on pACYC177, Δ35 (ΔompK35 mutant)
[19] = CTX-M-15 on pACYC177, Δ35/36 (ΔompK35/36 mutant)
[20] = CTX-M-15 on pACYC177, Δ36 (ΔompK36 mutant)
[21] = CTX-M-15 on pACYC177, ΔramR mutant
[22] = CTX-M-15 on pACYC177, ΔramRΔ35 (ΔramRΔompK35 mutant)
[23] = CTX-M-15 on pACYC177, ΔramRΔ35/36 (ΔramRΔompK35/36 mutant)
[24] = CTX-M-15 on pACYC177, ΔramRΔ36 (ΔramRΔompK36 mutant)
[25] = DHA-1-AmpR on pACYC177, WT (NVT1001), read-out: MIC
[26] = DHA-1-AmpR on pACYC177, Δ35 (ΔompK35 mutant)
[27] = DHA-1-AmpR on pACYC177, Δ35/36 (ΔompK35/36 mutant)
[28] = DHA-1-AmpR on pACYC177, Δ36 (ΔompK36 mutant)
[29] = DHA-1-AmpR on pACYC177, ΔramR mutant
[30] = DHA-1-AmpR on pACYC177, ΔramRΔ35 (ΔramRΔompK35 mutant)
[31] = DHA-1-AmpR on pACYC177, ΔramRΔ35/36 (ΔramRΔompK35/36 mutant)
[32] = DHA-1-AmpR on pACYC177, ΔramRΔ36 (ΔramRΔompK36 mutant)
[33] = SHV-12 on pACYC177, WT (NVT1001), read-out: MIC
[34] = SHV-12 on pACYC177, Δ35 (ΔompK35 mutant)
[35] = SHV-12 on pACYC177, Δ35/36 (ΔompK35/36 mutant)
[36] = SHV-12 on pACYC177, Δ36 (ΔompK36 mutant)
[37] = SHV-12 on pACYC177, ΔramR mutant
[38] = SHV-12 on pACYC177, ΔramRΔ35 (ΔramRΔompK35 mutant)
[39] = SHV-12 on pACYC177, ΔramRΔ35/36 (ΔramRΔompK35/36 mutant)
[40] = SHV-12 on pACYC177, ΔramRΔ36 (ΔramRΔompK36 mutant)
[41] = no supplemental plasmid, WT (NVT1001), read-out: MIC
[42] = no supplemental plasmid, Δ35 (ΔompK35 mutant)
[43] = no supplemental plasmid, Δ35/36 (ΔompK35/36 mutant)
[44] = no supplemental plasmid, Δ36 (ΔompK36 mutant)
[45] = no supplemental plasmid, ΔramR mutant
[46] = no supplemental plasmid, ΔramRΔ35 (ΔramRΔompK35 mutant)
[47] = no supplemental plasmid, ΔramRΔ35/36 (ΔramRΔompK35/36 mutant)
[48] = no supplemental plasmid, ΔramRΔ36 (ΔramRΔompK36 mutant)

In the case of `C[C@@H](O)[C@H]1C(=O)N2C(C(=O)O)=C(S[C@@H]3CN[C@H](C(=O)Nc4cccc(C(=O)O)c4)C3)[C@H](C)[C@H]12` [Ertapenem], the MIC [1] is reported as 1 mg/L, the MIC [2] is reported as 1 mg/L and the MIC [3] is reported as > 32 mg/L. The MIC [4] was 4 mg/L, the MIC [5] was 1 mg/L and the MIC [6] was 1 mg/L. The MIC [7] was > 32 mg/L, the MIC [8] was > 32 mg/L and the MIC [9] was 0.125 mg/L. The MIC [10] was 0.25 mg/L, the MIC [11] was 8 mg/L and the MIC [12] was 0.25 mg/L. It also gave an MIC [13] of 0.25 mg/L, an MIC [14] of 0.25 mg/L and an MIC [15] of 16 mg/L. It also gave an MIC [16] of 16 mg/L, an MIC [17] of 0.5 mg/L and an MIC [18] of 0.5 mg/L. For the same compound, the MIC [19] was > 32 mg/L, the MIC [20] was 0.5 mg/L and the MIC [21] was 0.5 mg/L. For the same compound, the MIC [22] was 0.5 mg/L, the MIC [23] was > 32 mg/L and the MIC [24] was > 32 mg/L. For the same compound, the MIC [25] was 1 mg/L, the MIC [26] was 1 mg/L and the MIC [27] was > 32 mg/L. For the same compound, the MIC [28] was 1 mg/L, the MIC [29] was 1 mg/L and the MIC [30] was 1 mg/L. The MIC [31] was > 32 mg/L, the MIC [32] was > 32 mg/L and the MIC [33] was 0.06 mg/L. The MIC [34] was 0.06 mg/L, the MIC [35] was 4 mg/L and the MIC [36] was 0.06 mg/L. The MIC [37] was 0.125 mg/L, the MIC [38] was 0.125 mg/L and the MIC [39] was 4 mg/L. The MIC [40] was 4 mg/L, the MIC [41] was 0.015 mg/L and the MIC [42] was 0.03 mg/L. It also gave an MIC [43] of 2 mg/L, an MIC [44] of 0.03 mg/L and an MIC [45] of 0.125 mg/L. The MIC [46] was 0.125 mg/L, the MIC [47] was 4 mg/L and the MIC [48] was 4 mg/L.

With `C[C@@H](O)[C@H]1C(=O)N2C(C(=O)O)=C(SCCN=CN)C[C@H]12` [Imipenem] the MIC [1] was 1 mg/L, the MIC [2] was 1 mg/L and the MIC [3] was > 32 mg/L. It also gave an MIC [4] of 4 mg/L, an MIC [5] of 1 mg/L and an MIC [6] of 1 mg/L. The MIC [7] was 32 mg/L, the MIC [8] was 32 mg/L and the MIC [9] was 0.5 mg/L. For the same compound, the MIC [10] was 0.5 mg/L, the MIC [11] was 1 mg/L and the MIC [12] was 0.5 mg/L. The MIC [13] was 0.25 mg/L, the MIC [14] was 0.25 mg/L and the MIC [15] was 0.5 mg/L. The MIC [16] was 0.5 mg/L, the MIC [17] was 0.5 mg/L and the MIC [18] was 0.5 mg/L. For the same compound, the MIC [19] was 4 mg/L, the MIC [20] was 0.5 mg/L and the MIC [21] was 0.5 mg/L. For the same compound, the MIC [22] was 0.25 mg/L, the MIC [23] was 2 mg/L and the MIC [24] was 2 mg/L. The MIC [25] was 0.5 mg/L, the MIC [26] was 0.5 mg/L and the MIC [27] was 32 mg/L. The MIC [28] was 0.5 mg/L, the MIC [29] was 0.25 mg/L and the MIC [30] was 0.25 mg/L. The MIC [31] was 16 mg/L, the MIC [32] was 16 mg/L and the MIC [33] was 0.5 mg/L. It also gave an MIC [34] of 0.5 mg/L, an MIC [35] of 1 mg/L and an MIC [36] of 0.5 mg/L. For the same compound, the MIC [37] was 0.25 mg/L, the MIC [38] was 0.25 mg/L and the MIC [39] was 1 mg/L. The MIC [40] was 0.5 mg/L, the MIC [41] was 0.5 mg/L and the MIC [42] was 0.5 mg/L. For the same compound, the MIC [43] was 0.5 mg/L, the MIC [44] was 0.5 mg/L and the MIC [45] was 0.25 mg/L. For the same compound, the MIC [46] was 0.25 mg/L, the MIC [47] was 0.5 mg/L and the MIC [48] was 0.5 mg/L.

Compound `C[C@@H](O)[C@H]1C(=O)N2C(C(=O)O)=C(S[C@@H]3CN[C@H](C(=O)N(C)C)C3)[C@H](C)[C@H]12` [Meropenem] has an MIC [1] of 0.25 mg/L, an MIC [2] of 0.25 mg/L and an MIC [3] of 16 mg/L. For the same compound, the MIC [4] was 2 mg/L, the MIC [5] was 0.25 mg/L and the MIC [6] was 0.25 mg/L. For the same compound, the MIC [7] was 8 mg/L, the MIC [8] was 8 mg/L and the MIC [9] was 0.06 mg/L. The MIC [10] was 0.125 mg/L, the MIC [11] was 2 mg/L and the MIC [12] was 0.125 mg/L. The MIC [13] was 0.125 mg/L, the MIC [14] was 0.125 mg/L and the MIC [15] was 2 mg/L. The MIC [16] was 2 mg/L, the MIC [17] was 0.25 mg/L and the MIC [18] was 0.25 mg/L. For the same compound, the MIC [19] was 8 mg/L, the MIC [20] was 0.25 mg/L and the MIC [21] was 0.25 mg/L. For the same compound, the MIC [22] was 0.25 mg/L, the MIC [23] was 4 mg/L and the MIC [24] was 4 mg/L. For the same compound, the MIC [25] was 0.25 mg/L, the MIC [26] was 0.25 mg/L and the MIC [27] was 8 mg/L. For the same compound, the MIC [28] was 0.25 mg/L, the MIC [29] was 0.125 mg/L and the MIC [30] was 0.25 mg/L. The MIC [31] was 4 mg/L, the MIC [32] was 8 mg/L and the MIC [33] was 0.125 mg/L. It also gave an MIC [34] of 0.125 mg/L, an MIC [35] of 1 mg/L and an MIC [36] of 0.125 mg/L. For the same compound, the MIC [37] was 0.06 mg/L, the MIC [38] was 0.06 mg/L and the MIC [39] was 2 mg/L. The MIC [40] was 1 mg/L, the MIC [41] was 0.06 mg/L and the MIC [42] was 0.06 mg/L. The MIC [43] was 0.5 mg/L, the MIC [44] was 0.06 mg/L and the MIC [45] was 0.06 mg/L. It also gave an MIC [46] of 0.06 mg/L, an MIC [47] of 2 mg/L and an MIC [48] of 2 mg/L.
